Columns and labels:
PvSHMT [1] = target: T1, PvSHMT (Plasmodium vivax, UniProt A5K8L9); experiment: PLP fluorescence quenching; format: binding; conditions: 10 mM ligand, ~23 μM enzyme, 25 °C, 50 mM HEPES pH 7
T1 construct: gene PVX_100730; recombinant, expressed in E. coli BL21(DE3) as in an earlier report; dimer
T1 sequence (A5K8L9 1-442): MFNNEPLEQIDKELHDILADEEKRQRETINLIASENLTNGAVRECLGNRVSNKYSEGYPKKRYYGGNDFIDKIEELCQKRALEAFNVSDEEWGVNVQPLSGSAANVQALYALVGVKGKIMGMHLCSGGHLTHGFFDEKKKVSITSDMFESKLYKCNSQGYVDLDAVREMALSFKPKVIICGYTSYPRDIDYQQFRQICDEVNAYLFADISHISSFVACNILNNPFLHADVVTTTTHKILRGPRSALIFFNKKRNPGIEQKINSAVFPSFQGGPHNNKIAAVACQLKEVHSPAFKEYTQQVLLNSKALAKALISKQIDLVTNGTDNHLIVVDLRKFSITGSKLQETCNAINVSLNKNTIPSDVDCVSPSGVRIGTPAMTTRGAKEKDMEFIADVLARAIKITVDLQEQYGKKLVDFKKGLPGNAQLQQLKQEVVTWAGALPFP

PfSHMT [2] = target: T2, PfSHMT (Plasmodium falciparum, UniProt Q8I566); experiment: PLP fluorescence quenching; format: binding; conditions: 10 mM ligand, ~23 μM enzyme, 25 °C, 50 mM HEPES pH 7
T2 construct: gene SHMT; recombinant, expressed in E. coli BL21(DE3) as in an earlier report, purified on Ni-Sepharose; dimer
T2 sequence (Q8I566 1-442): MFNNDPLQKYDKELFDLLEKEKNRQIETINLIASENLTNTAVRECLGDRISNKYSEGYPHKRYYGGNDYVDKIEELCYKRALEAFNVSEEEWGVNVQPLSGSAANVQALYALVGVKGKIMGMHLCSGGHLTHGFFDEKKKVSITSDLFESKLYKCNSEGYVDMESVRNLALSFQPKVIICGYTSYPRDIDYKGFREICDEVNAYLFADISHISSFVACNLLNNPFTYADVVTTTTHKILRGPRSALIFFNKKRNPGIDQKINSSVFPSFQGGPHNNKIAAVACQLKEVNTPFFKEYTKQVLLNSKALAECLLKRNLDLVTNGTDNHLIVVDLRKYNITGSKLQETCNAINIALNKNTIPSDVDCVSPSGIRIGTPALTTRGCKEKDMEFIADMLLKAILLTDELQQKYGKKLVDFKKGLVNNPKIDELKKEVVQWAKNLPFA

PfSHMT [3] = target: T2, PfSHMT; experiment: SHMT-MTHFD coupled assay, initial rates; format: biochemical; conditions: read-out: % inhibition at 0.1 mM
PvSHMT [4] = target: T1, PvSHMT; experiment: time-dependent inactivation, SHMT-MTHFD coupled assay; format: biochemical; conditions: covalent; time-dependent inactivation by reaction with PLP; preincubation 5-30 min; 25 °C, 50 mM HEPES pH 7
PfSHMT [5] = target: T2, PfSHMT; experiment: as above; format: biochemical; conditions: covalent; time-dependent inactivation by reaction with PLP; preincubation 5-30 min; 25 °C, 50 mM HEPES pH 7
PvSHMT [6] = target: T1, PvSHMT; experiment: SHMT-MTHFD coupled assay, initial rates; format: biochemical; conditions: read-out: % inhibition at 0.25 mM

## NCC(=O)O [glycine]
PvSHMT [1]
  PLP fluorescence quenching: the fluorescence signal of Pf- and PvSHMT was quenched
PfSHMT [2]
  PLP fluorescence quenching: for PfSHMT the binding of glycine caused the largest decrease in fluorescence intensity

## CCCCOc1cc(Cc2cnc(N)nc2N)ccc1OCc1cc(OC)c(OC)c(OC)c1 [CT-57-59-38]
PfSHMT [3]
  inhibition at 100 µM: 40%

## C[C@H](N)C(=O)O [L-alanine]
PvSHMT [1]
  PLP fluorescence quenching: the fluorescence signal of Pf- and PvSHMT was quenched
PfSHMT [2]
  PLP fluorescence quenching: Upon addition of amino acids (L-, D-serine, L-alanine, and glycine), the fluorescence signal of Pf-

## CCOc1cc(Cc2cnc(N)nc2N)ccc1OCCCc1ccccc1 [CT-55-59-42]
PfSHMT [3]
  inhibition at 100 µM: 40%

## N[C@H](CO)C(=O)O [D-serine]
PvSHMT [1]
  PLP fluorescence quenching: the fluorescence signal of Pf- and PvSHMT was quenched
PfSHMT [2]
  PLP fluorescence quenching: Upon addition of amino acids (L-, D-serine, L-alanine, and glycine), the fluorescence signal of Pf-

## N[C@@H](CO)C(=O)O [L-serine]
PfSHMT [2]
  PLP fluorescence quenching: Upon addition of amino acids (L-, D-serine, L-alanine, and glycine), the fluorescence signal of Pf-

## NNC(N)=S [thiosemicarbazide]
PvSHMT [4]
  KI (inactivation): 210 ± 80 µM
PfSHMT [5]
  KI (inactivation): 360 ± 70 µM

## CCc1nc(N)nc(N)c1OCCCOc1ccnc2ccccc12 [TV-P-0-113]
PvSHMT [6]
  inhibition at 250 µM: 40%

— PMC3502260, “Plasmodium serine hydroxymethyltransferase as a potential anti-malarial target: inhibition studies using improved methods for enzyme production and assay” (Malaria Journal, 2012)
